These results are taken from US6984634B2, “Bile-acid conjugates for providing sustained systemic concentrations of drugs” (XenoPort, Inc., priority 2000, dated 2006).

The structures appear in SMILES notation. Where two headings read alike, the source gives them in different places.

The target in data set [1] is T1, rPEPT1 (Rattus norvegicus, UniProt P51574).
T1 construct: expressed in transfected cells; host or cells: CHO cells
T1 sequence (P51574 1-710): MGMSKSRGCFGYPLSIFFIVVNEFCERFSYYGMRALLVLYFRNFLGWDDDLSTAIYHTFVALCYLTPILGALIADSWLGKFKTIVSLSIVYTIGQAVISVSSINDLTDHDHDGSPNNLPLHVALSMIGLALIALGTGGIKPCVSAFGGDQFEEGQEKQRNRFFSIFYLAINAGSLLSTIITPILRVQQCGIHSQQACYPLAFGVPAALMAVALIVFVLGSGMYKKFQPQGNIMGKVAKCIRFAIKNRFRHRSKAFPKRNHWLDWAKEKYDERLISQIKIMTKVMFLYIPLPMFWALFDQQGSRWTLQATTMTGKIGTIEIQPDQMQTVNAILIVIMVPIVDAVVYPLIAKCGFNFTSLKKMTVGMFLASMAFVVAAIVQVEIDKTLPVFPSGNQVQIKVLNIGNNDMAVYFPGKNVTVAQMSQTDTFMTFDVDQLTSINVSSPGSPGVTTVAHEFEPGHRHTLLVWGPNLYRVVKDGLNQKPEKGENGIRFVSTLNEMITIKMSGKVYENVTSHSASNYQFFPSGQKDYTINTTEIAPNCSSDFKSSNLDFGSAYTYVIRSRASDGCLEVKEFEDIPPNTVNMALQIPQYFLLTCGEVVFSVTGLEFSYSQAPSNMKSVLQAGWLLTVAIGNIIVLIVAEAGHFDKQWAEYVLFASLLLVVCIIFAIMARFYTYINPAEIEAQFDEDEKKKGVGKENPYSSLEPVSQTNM
As to the kind of experiment: Transport-induced currents in Xenopus oocytes expressing rPEPT1. The format is cell-based. The conditions noted are these: relative to Gly-Sar, test compound 1 mM. The procedure:
(§1) Rat and human PEPT1 and PEPT2 expressing CHO cell lines were prepared as described in PCT Application WO01/20331. Gabapentin-containing dipeptides were evaluated for interaction with the peptide transporters using a radiolabeled substrate uptake assay in a competitive inhibition format, as described in PCT Application WO01/20331. Transport-induced currents were also measured in Xenopus oocytes transfected with rat and human PEPT1 and PEPT2.

For data set [2], the target named is T1, rPEPT1. The data set is described as follows: Inhibition of radiolabeled Gly-Sar uptake in rPEPT1-expressing CHO cells. The class given is cell-based. The procedure: as §1
The target of the next data set is T2, LBAT transporter (Homo sapiens, UniProt Q14973).
T2 sequence (Q14973 1-349): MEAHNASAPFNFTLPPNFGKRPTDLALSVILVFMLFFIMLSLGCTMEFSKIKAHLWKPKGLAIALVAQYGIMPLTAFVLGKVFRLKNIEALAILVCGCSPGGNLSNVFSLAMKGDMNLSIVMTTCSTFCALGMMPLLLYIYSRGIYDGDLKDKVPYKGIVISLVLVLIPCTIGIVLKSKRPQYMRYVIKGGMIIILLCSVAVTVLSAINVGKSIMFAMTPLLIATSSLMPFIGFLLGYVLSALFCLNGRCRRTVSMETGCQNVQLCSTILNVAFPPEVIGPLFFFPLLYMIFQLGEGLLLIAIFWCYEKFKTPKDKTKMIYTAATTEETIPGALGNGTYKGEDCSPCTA
As to the kind of experiment: Inhibition of radiolabeled taurocholate uptake in LBAT-expressing CHO cells. The class given is cell-based. The conditions noted are these: radiolabeled competition assay in LBAT-expressing CHO cells, taurocholate 5 μM. The procedure: (§2) (a) Inhibition of Radiolabeled Taurocholate Uptake
(§3) CHO cells transfected with the IBAT or LBAT transporter were seeded into 96-well microtiter plates at 100,000 cells/well in 100 μL DMEM containing 10% serum, glutamine and Penstrep. After overnight incubation the media was removed and test compound (25 μL) added at 2× the final desired concentration. Tritiated taurocholate (50,000 CPM/well) was diluted with cold substrate to a final concentration of 5 μM and 25 μL/well of this mixture was added to the plate. After incubating for 1 h at room temperature the solution was removed and the plate washed 4× with PBS at 4° C. 200 μL/well of scintillant is added and the plate then read in a Wallac microbeta counter. The inhibition data is processed by standard methods to calculate an inhibition constant K1 for the test compound.

Data set [3] addresses T3, IBAT transporter (Homo sapiens, UniProt Q12908).
T3 sequence (Q12908 1-348): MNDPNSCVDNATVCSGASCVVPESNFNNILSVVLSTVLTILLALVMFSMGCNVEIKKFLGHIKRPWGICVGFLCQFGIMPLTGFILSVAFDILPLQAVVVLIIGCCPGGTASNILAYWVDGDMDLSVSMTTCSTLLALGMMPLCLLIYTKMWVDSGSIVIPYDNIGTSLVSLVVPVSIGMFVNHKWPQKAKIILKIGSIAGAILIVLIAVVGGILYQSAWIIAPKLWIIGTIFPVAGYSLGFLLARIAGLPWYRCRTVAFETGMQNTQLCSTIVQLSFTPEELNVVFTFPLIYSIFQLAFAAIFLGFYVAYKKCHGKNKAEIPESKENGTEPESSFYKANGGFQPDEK
The data set is described as follows: Electrogenic transport in Xenopus oocytes expressing IBAT. The class given is cell-based. To be noted: for % Max. (GDC): relative to glycodeoxycholate. The text has this:
(b) Analysis of Electrogenic Transport in Xenopus Oocytes
RNA preparation: Human IBAT Transporter cDNAs were subcloned into a modified pGEM plasmid that contains 5′ and 3′ untranslated sequences from the Xenopus β-actin gene. These sequences increase RNA stability and protein expression. Plasmid cDNA was linearized and used as template for in vitro transcription (Epicentre Technologies transcription kit, 4:1 methylated:non-methylated GTP).
Xenopus oocyte isolation. Xenopus laevis frogs were anesthetized by immersion in Tricaine ([…] in deionized water) for 15 min. Oocytes were removed and digested in frog ringer solution (90 mM NaCl, 2 mM KCl, 1 mM MgCl2, 10 mM NaHEPES, pH 7.45, no CaCl2) with 1 mg/mL collagenase (Worthington Type 3) for 80-100 min with shaking. The oocytes were washed 6 times, and the buffer changed to frog ringer solution containing CaCl2 (1.8 mM). Remaining follicle cells were removed if necessary. Cells were incubated at 16° C., and each oocyte injected with […] RNA in […] solution.
Electrophysiology measurements. Transport currents were measured 2-14 days after injection, using a standard two-electrode electrophysiology set-up (Geneclamp 500 amplifier, Digidata 1320/PCLAMP software and ADInstruments hardware and software were used for signal acquisition). Electrodes ([…]) were microfabricated using a Sutter Instrument puller and filled with 3M KCl. The bath was directly grounded (transporter currents were less than 0.3 μA). Bath flow was controlled by an automated perfusion system (ALA Scientific Instruments, solenoid valves).
For transporter pharmacology, oocytes were clamped at −60 to −90 mV, and continuous current measurements acquired using PowerLab Software and an ADInstruments digitizer. Current signals were lowpass filtered at 20 Hz and acquired at 4-8 Hz. All bath and drug-containing solutions were frog ringers solution containing CaCl2. Drugs were applied for 10-30 seconds until the induced current reached a new steady-state level, followed by a control solution until baseline currents returned to levels that preceded drug application. The difference current (baseline subtracted from peak current during drug application) reflected the net movement of charge resulting from electrogenic transport and was directly proportional to tranport rate. Recordings were made from a single oocyte for up to 60 min, enabling 30-40 separate compounds to be tested per oocyte. […] To compare results between oocytes expressing different levels of transport activity, a saturating concentration of glycodeoxycholate (300 μM) was used as a common reference to normalize results from test compounds. Using this normalization procedure Vmax (i.e. maximal induced current) for different compounds tested on different oocytes could be compared.

In data set [4] the target is T3, IBAT transporter. As to the kind of experiment: Inhibition of radiolabeled taurocholate uptake in IBAT-expressing CHO cells. The class given is cell-based. The conditions noted are these: radiolabeled competition assay in IBAT-expressing CHO cells, taurocholate 5 μM. The procedure:
as §2, §3

Data set [5] has as its target T4, rPEPT2 (Rattus norvegicus, UniProt Q63424).
T4 construct: expressed in transfected cells; host or cells: Xenopus oocytes
T4 sequence (Q63424 1-729): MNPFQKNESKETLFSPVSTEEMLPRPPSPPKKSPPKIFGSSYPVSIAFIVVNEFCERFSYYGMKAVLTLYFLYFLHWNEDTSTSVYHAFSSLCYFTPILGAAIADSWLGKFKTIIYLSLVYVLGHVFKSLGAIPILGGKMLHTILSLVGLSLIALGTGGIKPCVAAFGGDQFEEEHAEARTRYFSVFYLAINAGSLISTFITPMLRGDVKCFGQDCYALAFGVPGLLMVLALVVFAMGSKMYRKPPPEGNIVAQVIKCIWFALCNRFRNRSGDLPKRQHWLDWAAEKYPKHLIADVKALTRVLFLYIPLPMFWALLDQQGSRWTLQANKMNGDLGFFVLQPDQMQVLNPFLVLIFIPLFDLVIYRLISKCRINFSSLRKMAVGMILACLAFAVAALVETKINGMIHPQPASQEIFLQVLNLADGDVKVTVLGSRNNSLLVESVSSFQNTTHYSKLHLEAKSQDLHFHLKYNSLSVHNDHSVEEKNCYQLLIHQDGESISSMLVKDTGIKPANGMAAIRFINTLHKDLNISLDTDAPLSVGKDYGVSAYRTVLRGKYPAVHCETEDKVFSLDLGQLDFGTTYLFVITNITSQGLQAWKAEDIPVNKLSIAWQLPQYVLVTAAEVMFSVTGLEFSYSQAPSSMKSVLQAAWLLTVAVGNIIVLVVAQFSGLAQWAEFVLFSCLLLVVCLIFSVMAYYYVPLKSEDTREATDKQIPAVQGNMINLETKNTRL
As to the kind of experiment: Transport-induced currents in Xenopus oocytes expressing rPEPT2. The conditions noted are these: relative to Gly-Sar, test compound 1 mM. The format is cell-based. The procedure: as §1

Data set [6] concerns the target T4, rPEPT2. The data set is described as follows: Inhibition of radiolabeled Gly-Sar uptake in rPEPT2-expressing CHO cells. The format is cell-based. The procedure:
as §1

Data set [7] in a line: Pharmacokinetics in rats, Gabapentin in plasma after oral administration. To be noted: male, Sprague-Dawley, rat, 25 mg/kg. The procedure: The pharmacokinetics of the prodrug Cholyl-Phe-Gabapentin (9g) were examined in rats. Three groups of four male Sprague-Dawley rats (approx 200 g) with jugular cannulae each received one of the following treatments: A) a single bolus intravenous injection of Gabapentin (25 mg/kg, as a solution in water); B) a single oral dose of Gabapentin (25 mg/kg, as a solution in water) administered by oral gavage; C) a single oral dose of (9g) (103.5 mg/kg, as a solution in water) administered by oral gavage. Animals were fasted overnight prior to dosing and until 4 hours post-dosing. Serial blood samples were obtained over 24 hours following dosing and blood was processed for plasma by centrifugation. Plasma samples were stored at −80° C. until analyzed.
Concentrations of (9g) or (2) in plasma samples were determined by LC/MS/MS as described above. Plasma (50 μL) was precipitated by addition of […] of methanol and supernatent was injected directly onto the LC/MS/MS system.

What is called IC50 is the concentration at which inhibition is half-maximal. For orientation: EC50 means the concentration giving half of the maximal effect. A low value points to greater potency. The bioavailability is the share of a dose that reaches the circulation, judged against a reference dose that is usually intravenous. Read a low bioavailability as poor availability. In general, Tmax refers to the time at which the peak concentration occurs. What is called half-life is the time needed for the level to fall by half in the phase considered. The low end stands for fast loss, the high end for slow loss.

Consider `NCC(=O)NCC1(CC(=O)O)CCCCC1` [Gly-Gabapentin], for which the “% Max. (Gly-Sar)” value at rPEPT1 [1] was found to be 76%. For the same compound, on rPEPT1 [2] (radiolabeled competition assay in rPEPT1-expressing CHO cells, read-out: IC50), the 50% inhibitory concentration (IC50) came out at 320 µM.

Regarding `C[C@H](CCC(=O)NCC(=O)NCC1(CC(=O)O)CCCCC1)[C@H]1CC[C@H]2[C@@H]3[C@H](O)C[C@@H]4C[C@H](O)CC[C@]4(C)[C@H]3C[C@H](O)[C@]12C` [Cholyl-Gly-Gabapentin (9a), Cholyl-Gly-Gabapentin], the figures for the IC50 on LBAT transporter and on IBAT transporter [4] were 64 µM and 66 µM, respectively. Further, the EC50 at IBAT transporter [3] is 22 µM.

On to `NC(Cc1ccc(O)cc1)C(=O)NCC1(CC(=O)O)CCCCC1` (centres unmarked) [Tyr-Gabapentin], for which the figures for the “% Max. (Gly-Sar)” value at rPEPT1 [1] and on rPEPT2 [5] were 22% and 73%, respectively. The figures for the IC50 against rPEPT1 [2] and at rPEPT2 [6] were 130 µM and 4 µM, respectively.

`CC(CCC(=O)NC(Cc1ccccc1)C(=O)NCC1(CC(=O)O)CCCCC1)C1CCC2C3C(O)CC4CC(O)CCC4(C)C3CCC12C` (centres unmarked) [UDC-Phe-Gabapentin (9p), Ursodeoxycholyl-Phe-Gabapentin] showed an IC50 on LBAT transporter of 0.7 µM. On IBAT transporter [3], the EC50 amounted to 18 µM and the “% Max. (GDC)” value amounted to 27%. The IC50 on IBAT transporter [4] worked out at 27 µM.

Take `NC(Cc1ccccc1)C(=O)NCC1(CC(=O)O)CCCCC1` (centres unmarked) [Phe-Gabapentin]: the results for the “% Max. (Gly-Sar)” value on rPEPT1 [1] and on rPEPT2 [5] were 52% and 77%, respectively. Besides, at rPEPT1 [2], the IC50 was determined as 56 µM.

`NCC1(CC(=O)O)CCCCC1` [Gabapentin, gabapentin]: in data set [7] (oral), the bioavailability was found to be 87 ± 18%. In data set [7] (po), the Tmax was 1.3 ± 0.5 h and the half-life is 3 ± 1.3 h.

On to `CC(CCC(=O)NC(Cc1ccc(O)cc1)C(=O)NCC1(CC(=O)O)CCCCC1)C1CCC2C3C(O)CC4CC(O)CCC4(C)C3CC(O)C12C` (centres unmarked) [Cholyl-Tyr-Gabapentin (9h), Cholyl-Tyr-Gabapentin], for which the IC50 at LBAT transporter worked out at 15 µM; on IBAT transporter [4], 52 µM. Also, at IBAT transporter [3], the response was half-maximal at 160 µM (EC50). Besides, the “% Max. (GDC)” value at IBAT transporter [3] came out at 13%.
